Measured values taken from patent US20240228460A1, “PROTEASE INHIBITORS AND METHODS OF MAKING SAME” (priority 2022, published 2024).
Where two headings read alike, the source gives them in different places.

Experiments:
cathepsin L = cathepsin L (Homo sapiens (Human), UniProt P07711); test: Cathepsin L inhibition assay (Z-LR-AMC fluorogenic substrate); assay type: biochemical
Description: Assays to evaluate the inhibition of cathepsin L contained 25 pM cathepsin L (RD systems: 952-CY-010), 5 uM Z-LR-AMC fluorogenic peptide substrate, 100 nL of test compound in 100% DMSO, in a total of 10 uL of 20 mM KPO4, pH 6.0, 150 mM NaCl, 0.005% Tween20, 5 mM DTT in black low volume 384-well plates. The production of AMC (7-amino-4-methylcoumarin) was followed at 5 min intervals at 355 nm excitation, 460 nm emission in an Envision microplate reader (PerkinElmer). Reaction rates were determined by linear regression of the resulting progress curves. Rates were normalized to % inhibition, where 0% is equal to the rate in the presence of enzyme, and 100% is equal to the rate in the absence of enzyme. Nonlinear regression fits of the data to a one-site dose response curve were performed using XLFit (IDBS). […]

[1] = target: SARS-CoV-2 M^pro protease (Severe acute respiratory syndrome coronavirus 2 (2019-nCoV) (SARS-CoV-2), UniProt P0DTD1); test: Fluorogenic enzymatic assay, SARS-CoV-2 Mpro inhibition; assay type: biochemical; settings: quenched DABCYL/EDANS peptide substrate
SARS-CoV-2 M^pro = SARS-CoV-2 M^pro (Severe acute respiratory syndrome coronavirus 2 (2019-nCoV) (SARS-CoV-2), UniProt P0DTD1); test: biochemical; settings: 20 nM M^pro, 10 uM substrate, 1 hr, HPLC product peak area; read-out: IC50 against SARS-CoV-2 M^pro, HPLC-confirmed
[2] = 25 pM cathepsin L, 5 uM Z-LR-AMC, pH 6.0, read-out: IC50 Cathepsin L

Sequence of cathepsin L (P07711 114-333): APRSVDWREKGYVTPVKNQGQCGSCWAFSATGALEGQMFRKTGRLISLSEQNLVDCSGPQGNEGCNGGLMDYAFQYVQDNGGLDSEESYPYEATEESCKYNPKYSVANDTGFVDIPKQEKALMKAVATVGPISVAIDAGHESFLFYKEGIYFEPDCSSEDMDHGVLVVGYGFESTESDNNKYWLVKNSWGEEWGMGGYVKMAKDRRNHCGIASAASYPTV

Cc1cc[nH]c(=O)c1C(=O)NCC(NC(=O)c1cncc2ccccc12)c1ccc2ccccc2c1 (racemic) [(101), N-{2-[(2-hydroxy-4-methylpyridin-3-yl)formamido]-1-(naphthalen-2-yl)ethyl}isoquinoline-4-carboxamide]
IC50 (cathepsin L; [2]): > 100 µM
IC50 [1]: 1.7 µM
IC50 (SARS-CoV-2 M^pro): 5.4 µM

O=C(NCC(NC(=O)c1cncc2sccc12)c1ccc2ccccc2c1)c1cc(O)cc(O)c1 (stereo not drawn) [(105)]
IC50 [1]: 61.3 µM

Cc1cc[nH]c(=O)c1C(=O)NC[C@H](NC(=O)c1cncc2ccccc12)c1ccc2ccccc2c1 (single isomer, unassigned) [(103)]
IC50 (cathepsin L; [2]): 36.8 µM
IC50 [1]: 71.2 µM

Cc1cc[nH]c(=O)c1C(=O)NC[C@H](NC(=O)c1cncc2ccccc12)c1ccc2ccccc2c1 (single isomer, unassigned) [(102)]
IC50 (cathepsin L; [2]): 47.8 µM
IC50 [1]: 1.6 µM

O=C(NCC(NC(=O)C1COc2ccccc21)c1ccccc1)c1cccc2cnsc12 (stereo not drawn) [(106)]
IC50 (cathepsin L; [2]): 10.2 µM
IC50 [1]: 8.9 µM
IC50 (SARS-CoV-2 M^pro): 28 µM

CC(C)C[C@H](NC(=O)OCc1ccccc1)C(=O)N[C@@H](CC1CCNC1=O)C(O)S(=O)(=O)O (stereo partly drawn) [GC-376, reference compound]
IC50 (cathepsin L; positive control tested in parallel, read-out: IC50 cathepsin L (positive control)): 0.002 µM

Cc1cc(C(=O)NC(CNC(=O)c2cccc3sncc23)c2ccc3ccccc3c2)cc(=O)[nH]1 (stereo not drawn) [(104)]
IC50 [1]: 47.8 µM

O=C(NCC(NC(=O)c1cncc2[nH]ccc12)c1ccc2ccccc2c1)c1ccsc1 (stereo not drawn) [(107)]
IC50 [1]: 19.2 µM

CC(=O)c1c(C)[nH]c(C(=O)N[C@H](CNC(=O)c2ccc(F)c3ccccc23)c2ccccc2)c1C [(108), (S)-4-acetyl-N-(2-(4-fluoro-1-naphthamido)-1-phenylethyl)-3,5-dimethyl-1H-pyrrole-2-carboxamide]
IC50 [1]: 32.2 µM
